The target in the assay is Transient receptor potential cation channel subfamily V member 1 (Homo sapiens, UniProt Q8NER1). Briefly: Ca2+ Influx Functional Assay for the Determination of in Vitro Activity. The settings on record: pH 7.4; 22 °C; read-out: EC50 (the source's name). As for the experimental part:
The functional antagonist activity of compounds at the TRPV1 receptor was determined with a Ca2+ influx assay by measuring the effect on capsaicin (0.05 uM) evoked increase in intracellular Ca2+ levels using cells stably expressing recombinant human TRPV1. All compounds were tested over an 11-point half-log concentration range. The fluorescent Ca2+ chelating dye fluo-4 was used as an indicator of the relative levels of Ca2+ in a 96-well format using a fluorescence imaging plate reader. Fluorescence readings were made at 1-5 s intervals over the 240 s course of the experimental run. The peak increase in relative fluorescence units was calculated and expressed as a percentage of the 0.05 uM capsaicin (control) response. Curve fits of the data were solved using a four-parameter logistic Hill equation in GraphPad Prism, and IC50 values were calculated.

Transient receptor potential cation channel subfamily V member 1, sequence (Q8NER1 whole entry): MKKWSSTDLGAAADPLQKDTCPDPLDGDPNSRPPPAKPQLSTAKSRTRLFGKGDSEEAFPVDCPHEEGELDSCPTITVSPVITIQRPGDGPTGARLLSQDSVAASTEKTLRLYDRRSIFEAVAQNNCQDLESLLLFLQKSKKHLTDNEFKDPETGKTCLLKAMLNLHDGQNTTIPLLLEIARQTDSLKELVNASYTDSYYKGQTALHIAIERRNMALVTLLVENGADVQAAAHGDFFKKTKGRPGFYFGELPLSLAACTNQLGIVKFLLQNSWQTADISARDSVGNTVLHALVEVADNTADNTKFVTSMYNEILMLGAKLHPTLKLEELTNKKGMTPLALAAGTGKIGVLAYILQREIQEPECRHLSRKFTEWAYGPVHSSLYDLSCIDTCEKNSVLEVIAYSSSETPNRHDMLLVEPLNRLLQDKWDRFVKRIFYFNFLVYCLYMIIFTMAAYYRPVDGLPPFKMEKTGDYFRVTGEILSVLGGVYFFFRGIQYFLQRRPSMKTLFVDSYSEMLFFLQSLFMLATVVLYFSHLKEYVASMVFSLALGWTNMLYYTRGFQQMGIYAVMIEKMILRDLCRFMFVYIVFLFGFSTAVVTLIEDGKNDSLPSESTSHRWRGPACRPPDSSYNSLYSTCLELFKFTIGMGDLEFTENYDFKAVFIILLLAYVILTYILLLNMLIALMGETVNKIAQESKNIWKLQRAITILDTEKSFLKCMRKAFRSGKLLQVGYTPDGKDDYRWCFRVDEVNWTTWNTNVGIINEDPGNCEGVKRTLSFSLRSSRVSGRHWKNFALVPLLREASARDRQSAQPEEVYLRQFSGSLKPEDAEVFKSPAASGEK

Turning to `C[C@@H](NC(=O)Nc1cccc2[nH]ncc12)c1ccc(C(F)(F)F)cc1` [3-1H-indazol-4-yl-1-[(1R)-1-[4-(trifluoromethyl)phenyl]ethyl]urea], the IC50 is 41 nM.

In the case of `CCC(NC(=O)Nc1cccc2cnccc12)c1ccccc1` (configuration not stated) [1-isoquinolin-5-yl-3-(1-phenylpropyl)urea], the IC50 was determined as 2580 nM.

For `CC(C)(NC(=O)Nc1cccc2cnccc12)c1ccc(C(F)(F)F)cc1` [1-isoquinolin-5-yl-3-{2-[4-(trifluoromethyl)phenyl]propan-2-yl}urea], the IC50 stood at 94 nM.

On to `CCc1cc(C(C)(C)C)ccc1C(C)NC(=O)Nc1cccc2cnccc12` (configuration not stated) [3-[1-(4-tert-butyl-2-ethylphenyl)ethyl]-1-isoquinolin-5-ylurea], for which the IC50 came out at 20 nM.

As for `O=C(Nc1cccc2cnccc12)NC(c1ccccc1)c1ccccc1` [1-(diphenylmethyl)-3-isoquinolin-5-ylurea], the IC50 was found to be 600 nM.

Take `O=C(Nc1cccc2cnccc12)NC(c1ccccc1)c1ccc(N2CCCCC2)cc1` (configuration not stated) [3-isoquinolin-5-yl-1-{phenyl[4-(piperidin-1-yl)phenyl]methyl}urea]: the IC50 came out at 171 nM.

`CC(C)(C)c1ccc(C(NC(=O)Nc2cccc3cnccc23)c2ccccc2)cc1` (configuration not stated) [1-[(4-tert-butylphenyl)(phenyl)methyl]-3-isoquinolin-5-ylurea]: the IC50 was determined as 125 nM.

For `CCC(NC(=O)Nc1cccc2cnccc12)c1ccc(C(F)(F)F)c(F)c1` (configuration not stated) [3-{1-[3-fluoro-4-(trifluoromethyl)phenyl]propyl}-1-isoquinolin-5-ylurea], the IC50 was 109 nM.

As to `CN(C)CC(NC(=O)Nc1cccc2cnccc12)c1ccccc1` (configuration not stated) [3-[2-(dimethylamino)-1-phenylethyl]-1-isoquinolin-5-ylurea], the IC50 turned out to be 31000 nM.

For the compound `CC(C)(NC(=O)Nc1cccc2cnccc12)c1ccc(Cl)cc1` [3-[2-(4-chlorophenyl)propan-2-yl]-1-isoquinolin-5-ylurea], the IC50 stood at 143 nM.

`Cc1ccc([C@H](C)NC(=O)Nc2cccc3[nH]ncc23)cc1` [3-1H-indazol-4-yl-1-[(1S)-1-(4-methylphenyl)ethyl]urea]: the IC50 is 749 nM.

With `C[C@@H](NC(=O)Nc1cccc2[nH]ncc12)c1ccc2ccccc2c1` [3-1H-indazol-4-yl-1-[(1R)-1-(naphthalen-2-yl)ethyl]urea], the IC50 stood at 123 nM.

As for `Cc1ccc([C@@H](C)NC(=O)Nc2cccc3[nH]ncc23)cc1` [3-1H-indazol-4-yl-1-[(1R)-1-(4-methylphenyl)ethyl]urea], the IC50 amounted to 73 nM.

Take `CC(NC(=O)Nc1cccc2[nH]ncc12)c1ccc(C(F)(F)F)cc1` (racemic) [3-1H-indazol-4-yl-1-{1-[4-(trifluoromethyl)phenyl]ethyl}urea]: the IC50 came out at 47 nM.

Turning to `C[C@H](NC(=O)Nc1cccc2[nH]ncc12)c1ccc(C(F)(F)F)cc1` [3-1H-indazol-4-yl-1-[(1S)-1-[4-(trifluoromethyl)phenyl]ethyl]urea], the IC50 is 248 nM.

Regarding `N#CCC(NC(=O)Nc1cccc2cnccc12)c1ccccc1` (configuration not stated) [3-(2-cyano-1-phenylethyl)-1-isoquinolin-5-ylurea], the IC50 was determined as 15900 nM.

As for `CC(NC(=O)Nc1cccc2cnccc12)c1ccc(C(F)(F)F)c(F)c1` (configuration not stated) [3-{1-[3-fluoro-4-(trifluoromethyl)phenyl]ethyl}-1-isoquinolin-5-ylurea], the IC50 came out at 19 nM.

As to `CC(NC(=O)Nc1cccc2cnccc12)c1ccc(C(F)(F)F)cc1` (configuration not stated), the IC50 turned out to be 22 nM.

With `Cc1cc(C(C)(C)C)ccc1C(C)NC(=O)Nc1cccc2cnccc12` (configuration not stated) [3-[1-(4-tert-butyl-2-methylphenyl)ethyl]-1-isoquinolin-5-ylurea], the IC50 was 46 nM.

With `O=C(Nc1cccc2cnccc12)NC(c1ccccc1)c1ccc(C(F)(F)F)cc1` (configuration not stated) [3-isoquinolin-5-yl-1-{phenyl[4-(trifluoromethyl)phenyl]methyl}urea], the IC50 came out at 147 nM.

Take `O=C(Nc1cccc2cnccc12)NC(c1ccc(C(F)(F)F)cc1)C1CCCC1` (configuration not stated) [3-{cyclopentyl[4-(trifluoromethyl)phenyl]methyl}-1-isoquinolin-5-ylurea]: the IC50 stood at 476 nM.

On to `C[C@H](NC(=O)Nc1cccc2[nH]ncc12)c1ccc2ccccc2c1` [3-1H-indazol-4-yl-1-[(1S)-1-(naphthalen-2-yl)ethyl]urea], for which the IC50 is 3750 nM.

For `CC(NC(=O)Nc1cccc2cnccc12)c1ccc(C(C)(C)C)cc1C(C)(C)C` (configuration not stated) [3-[1-(2,4-di-tert-butylphenyl)ethyl]-1-isoquinolin-5-ylurea], the IC50 worked out at 17 nM.

`O=C(Nc1cccc2cnccc12)NC(c1ccc(C(F)(F)F)cc1)C1CC1` (configuration not stated) [3-{cyclopropyl[4-(trifluoromethyl)phenyl]methyl}-1-isoquinolin-5-ylurea]: the IC50 was found to be 149 nM.

For `O=C(Nc1cccc2cnccc12)NC(c1ccc(C(F)(F)F)cc1)C1CCCCC1` (configuration not stated) [1-{cyclohexyl[4-(trifluoromethyl)phenyl]methyl}-3-isoquinolin-5-ylurea], the IC50 was 287 nM.

In the case of `CC(NC(=O)Nc1cccc2cnccc12)c1ccc(Br)cc1` (configuration not stated) [3-[1-(4-bromophenyl)ethyl]-1-isoquinolin-5-ylurea], the IC50 amounted to 26 nM.

Regarding `CC(NC(=O)Nc1cccc2cnccc12)c1ccc(C(C)(C)C)cc1` (configuration not stated) [3-[1-(4-tert-butylphenyl)ethyl]-1-isoquinolin-5-ylurea], the IC50 turned out to be 24 nM.

Source of the values: BindingDB's records for doi:10.1016/j.bmcl.2007.04.105 (Abbott Laboratories, 2007).
